Results as given in US20170001990A1 (Genentech, Inc., priority 2014, published 2017).

Biological target: Human recombinant carboxy-terminal his-tagged LDHA (amino acids 2-332) (Homo sapiens, UniProt P00338)
Experiment: LDHA enzyme inhibition assay (NADH fluorescence)
Conditions: LDHA IC50 (μM), 1 nM LDHA, NADH and pyruvate, stereochemistry of tested sample given

IC50 [µM] | SMILES
0.044 | O=C1C[C@@](c2ccsc2)(c2ccc(N3CCOCC3)c(F)c2)NC(=O)C1Sc1ccccc1Cl (mixture of isomers) [Example 316, (6S)-3-(2-chlorophenyl) sulfanyl-6-(3-fluoro-4-morpholine-phenyl)-6-(3-thienyl)piperidine-2,4-dione]
0.162 | O=C1C[C@](c2ccsc2)(c2cccc(Oc3ccc(F)nc3Cl)n2)NC(=O)C1Sc1ccccc1Cl (mixture of isomers) [Example 325, (6S)-6-[6-[(2-chloro-6-fluoro-3-pyridyl)oxy]-2-pyridyl]-3-(2-chlorophenyl) sulfanyl-6-(3-thienyl) piperidine-2,4-dione]
0.03 | C[C@@H](Nc1cccc(C2(c3ccsc3)CC(=O)C(Sc3ccccc3Cl)C(=O)N2)n1)c1ccc(F)cc1 (mixture of isomers) [Example 302, 3-((2-chlorophenyl)thio)-6-(6-((1-(4-fluorophenyl)ethyl)amino)pyridin-2-yl)-6-(thiophen-3-yl) piperidine-2,4-dione]
0.12 | O=C1CC(c2ccsc2)(c2cccc(Oc3cccc(F)c3)n2)NC(=O)C1Sc1ccccc1Cl (single isomer, unassigned) [Example 47, 3-(2-chlorophenyl) sulfanyl-6-[6-(3-fluorophenoxy)-2-pyridyl]-6-(3-thienyl)piperidine-2,4-dione]
0.086 | O=C1CC(c2ccsc2)(c2cccc(Oc3ccc(F)c(F)c3)n2)NC(=O)C1Sc1ccccc1Cl (single isomer, unassigned) [Example 57, 3-(2-chlorophenyl)sulfanyl-6-[6-(3,4-difluoro-phenoxy)-2-pyridyl]-6-(3-thienyl)piperidine-2,4-dione]
0.056 | O=C1CC(c2ccsc2)(c2cccc(Oc3cncc(F)c3)n2)NC(=O)C1Sc1ccccc1Cl (single isomer, unassigned) [Example 65, 3-(2-chlorophenyl)sulfanyl-6-[6-[(5-fluoro-3-pyridyl)oxy]-2-pyridyl]-6-(3-thienyl)piperidine-2,4-dione]
0.031 | O=C1CC(c2ccsc2)(c2cccc(Oc3ccc(F)c(F)c3)n2)NC(=O)C1Sc1ccccc1Cl (single isomer, unassigned) [Example 77, 3-(2-chlorophenyl)sulfanyl-6-[6-(3,4-difluoro-phenoxy)-2-pyridyl]-6-(3-thienyl)piperidine-2,4-dione]
0.023 | O=C1CC(c2ccsc2)(c2cccc(Oc3ccc(F)c(F)c3)n2)NC(=O)C1Sc1ccccc1Cl (single isomer, unassigned) [Example 78, 3-(2-chlorophenyl)sulfanyl-6-[6-(3,4-difluoro-phenoxy)-2-pyridyl]-6-(3-thienyl)piperidine-2,4-dione]
0.199 | O=C1CC(c2ccsc2)(c2cccc(Oc3cccc(F)c3)n2)NC(=O)C1Sc1ccccc1Cl (single isomer, unassigned) [Example 79, 3-(2-chlorophenyl)sulfanyl-6-[6-(3-fluorophenoxy)-2-pyridyl]-6-(3-thienyl) piperidine-2,4-dione]
0.049 | O=C1CC(c2ccsc2)(c2cccc(OCC(F)(F)F)n2)NC(=O)C1Sc1ccccc1Cl (single isomer, unassigned) [Example 82, 3-(2-chlorophenyl)sulfanyl-6-(3-thienyl)-6-[6-(2,2,2-trifluoroethoxy)-2-pyridyl]piperidine-2,4-dione]
0.013 | O=C1CC(c2ccsc2)(c2cccc(Oc3ccc(F)c(Cl)c3)n2)NC(=O)C1Sc1ccccc1Cl (single isomer, unassigned) [Example 83, 6-(6-(3-chloro-4-fluoro-phenoxy)pyridin-2-yl)-3-((2-chlorophenyl)thio)-6-(thiophen-3-yl) piperidine-2,4-dione]
0.008 | O=C1CC(c2ccsc2)(c2cccc(OCC3CC3)n2)NC(=O)C1Sc1ccccc1Cl (single isomer, unassigned) [Example 84, 3-(2-chlorophenyl)sulfanyl-6-[6-(cyclopropyl-methoxy)-2-pyridyl]-6-(3-thienyl)piperidine-2,4-dione]
0.022 | O=C1CC(c2ccsc2)(c2cccc(OCC(F)(F)F)n2)NC(=O)C1Sc1ccccc1Cl (single isomer, unassigned) [Example 86, 3-(2-chlorophenyl)sulfanyl-6-(3-thienyl)-6-[6-(2,2,2-trifluoroethoxy)-2-pyridyl]piperidine-2,4-dione]
0.01 | O=C1CC(c2ccsc2)(c2cccc(OCC(F)(F)F)n2)NC(=O)C1Sc1ccccc1Cl (single isomer, unassigned) [Example 87, 3-(2-chlorophenyl)sulfanyl-6-(3-thienyl)-6-[6-(2,2,2-trifluoroethoxy)-2-pyridyl]piperidine-2,4-dione]
0.011 | O=C1CC(c2ccsc2)(c2cccc(Oc3cccc4ncccc34)n2)NC(=O)C1Sc1ccccc1Cl (single isomer, unassigned) [Example 91, 5-((2-chlorophenyl)thio)-4-hydroxy-6′-(quinolin-5-yloxy)-2-(thiophen-3-yl)-2,3-dihydro-[2,2′-bipyridin]-6(1H)-one]
0.319 | O=C1CC(c2ccsc2)(c2cccc(OCC3CC3)n2)NC(=O)C1Sc1ccccc1Cl (single isomer, unassigned) [Example 93, 3-(2-chlorophenyl)sulfanyl-6-[6-(cyclopropyl-methoxy)-2-pyridyl]-6-(3-thienyl)piperidine-2,4-dione]
0.03 | O=C1CC(c2ccsc2)(c2cccc(OCC3CC3)n2)NC(=O)C1Sc1ccccc1Cl (single isomer, unassigned) [Example 97, 3-(2-chlorophenyl)sulfanyl-6-[6-(cyclopropyl-methoxy)-2-pyridyl]-6-(3-thienyl)piperidine-2,4-dione]
0.118 | O=C1CC(c2ccsc2)(c2cccc(OC3CCC(O)C3)n2)NC(=O)C1Sc1ccccc1Cl (single isomer, unassigned) [Example 104, 3-((2-chlorophenyl)thio)-6-(6-((3-hydroxycyclo-pentyl)oxy)pyridin-2-yl)-6-(thiophen-3-yl) piperidine-2,4-dione]
0.732 | O=C1CC(c2ccsc2)(c2cccc(OC3CCC(O)C3)n2)NC(=O)C1Sc1ccccc1Cl (single isomer, unassigned) [Example 106, 3-((2-chlorophenyl)thio)-6-(6-((3-hydroxy-cyclopentyl)oxy)pyridin-2-yl)-6-(thiophen-3-yl)piperidin-2,4-dione]
0.108 | O=C1CC(c2ccsc2)(c2cccc(Oc3ccc(F)c(Cl)c3)n2)NC(=O)C1Sc1ccccc1Cl (single isomer, unassigned) [Example 108, 6-(6-(3-chloro-4-fluoro-phenoxy)pyridin-2-yl)-3-((2-chlorophenyl)thio)-6-(thiophen-3-yl) piperidine-2,4-dione]
0.018 | O=C1CC(c2ccsc2)(c2cccc(NCCC3CC3)n2)NC(=O)C1Sc1ccccc1Cl (single isomer, unassigned) [Example 110, 3-(2-chlorophenyl)sulfanyl-6-[6-(2-cyclopropylethyl-amino)-2-pyridyl]-6-(3-thienyl)piperidine-2,4-dione]
0.01 | O=C1CC(c2ccsc2)(c2cccc(Oc3ccc(F)c(Cl)c3)n2)NC(=O)C1Sc1ccccc1Cl (single isomer, unassigned) [Example 112, 6-(6-(3-chloro-4-fluoro-phenoxy)pyridin-2-yl)-3-((2-chlorophenyl)thio)-6-(thiophen-3-yl) piperidine-2,4-dione]
0.014 | O=C1CC(c2ccsc2)(c2cccc(OCCC3CCCC3)n2)NC(=O)C1Sc1ccccc1Cl (single isomer, unassigned) [Example 113, 3-((2-chlorophenyl)thio)-6-(6-(2-cyclopentyl-ethoxy)pyridin-2-yl)-6-(thiophen-3-yl)piperidine-2,4-dione]
0.053 | CC(C)(O)CCCOc1cccc(C2(c3ccsc3)CC(=O)C(Sc3ccccc3Cl)C(=O)N2)n1 (single isomer, unassigned) [Example 114, 3-((2-chlorophenyl)thio)-6-(6-((4-hydroxy-4-methyl-pentyl)oxy)pyridin-2-yl)-6-(thiophen-3-yl) piperidine-2,4-dione]
0.031 | O=C1CC(c2ccsc2)(c2cccc(Oc3cccc(C(F)F)c3)n2)NC(=O)C1Sc1ccccc1Cl (single isomer, unassigned) [Example 115, 3-(2-chlorophenyl)sulfanyl-6-[6-[3-(difluoromethyl)phenoxy]-2-pyridyl]-6-(3-thienyl)piperidine-2,4-dione]
0.376 | O=C1CC(c2ccsc2)(c2cccc(Oc3ccccc3Br)n2)NC(=O)C1Sc1ccccc1Cl (single isomer, unassigned) [Example 116, 6-[6-(2-bromophenoxy)-2-pyridyl]-3-(2-chlorophenyl) sulfanyl-6-(3-thienyl) piperidine-2,4-dione]
0.076 | O=C1CC(c2ccsc2)(c2cccc(Oc3ccc4ncccc4c3)n2)NC(=O)C1Sc1ccccc1Cl (single isomer, unassigned) [Example 117, 3-(2-chlorophenyl)sulfanyl-6-[6-(6-quinolyloxy)-2-pyridyl]-6-(3-thienyl) piperidine-2,4-dione]
0.622 | O=C1CC(c2ccsc2)(c2cccc(Cc3ccccc3)n2)NC(=O)C1Sc1ccccc1Cl (single isomer, unassigned) [Example 118, 6-(6-benzylpyridin-2-yl)-3-((2-chloropnenyl)thio)-6-(thiophen-3-yl) piperidine-2,4-dione]
0.293 | CC(C)CCOc1cccc(C2(c3ccsc3)CC(=O)C(Sc3ccccc3Cl)C(=O)N2)n1 (single isomer, unassigned) [Example 119, 3-(2-chlorophenyl)sulfanyl-6-(6-isopentyloxy-2-pyridyl)-6-(3-thienyl) piperidine-2,4-dione]
0.016 | O=C1CC(c2ccsc2)(c2cccc(Oc3ccc4ncccc4c3)n2)NC(=O)C1Sc1ccccc1Cl (single isomer, unassigned) [Example 120, 3-(2-chlorophenyl)sulfanyl-6-[6-(6-quinolyloxy)-2-pyridyl]-6-(3-thienyl) piperidine-2,4-dione]
